Consider one substance from EP3878441B1, “ALOE EMODIN AND ESTER DERIVATIVES THEREOF FOR TREATING SSTR2 AND/OR SSTR5 OVEREXPRESSING CANCERS” (Pecere, Teresa, priority 2020, dated 2021).

Data set [1] has as its system sstr2 gene. The data set is described as follows: Real-time PCR, sstr2 mRNA gene expression in IMR5 cells. The data set is classed as cell-based, human. As to conditions: SST14 10µM, 5,30,60,120 min (fig.1B). As for the experimental part:
(§1) Real-time PCR analyses were carried out to quantify expression of the selected sstrs genes in IMR5, DMS114, and MRC5 cells. Total RNA was isolated using the Qiagen RNeasy Mini Kit in accordance with the manufacturer's instructions. cDNA synthesis were performed using GeneAmp® RNA PCR Core Kit (Roche, New Jersey, U.S.A.). The expression levels of sstrs mRNA were evaluated by qualitative RT-PCR using the specific primers.
(§2) Relative quantitative PCR (qPCR) was carried out in 25 µl final volume utilizing 3 µl of cDNA, 0.2 µM of each specific primers, using SYBRgreen reagents according to the manufacturer's instructions. PCR reactions comprised 40 cycles after an initial denaturation step (95°C, 10 min) according to the parameters: denaturation at 95°C, 15 sec and annealing/extension at 60°C, 1 min, in an ABI PRISM 7700 Sequence Detection system. To normalize the RNA amount of the extracted samples, real-time PCR analysis of the human GAPDH cDNA was carried out. Moreover, we optimized the method for relative quantification with sequence-specific DNA probes for sstr2 and sstr5 genes TaqMan reagents using kit TaqMan Gene Expression Assays according to the manufacturer's instructions (Applied Biosystem, Milan, Italy). The relative quantification of a target template in the samples was evaluated using the 2^-ΔΔCT method. All experiments were conducted in triplicate.
Background: Real-time PCR tracks product formation cycle by cycle.

Data set [2] concerns Sstr5 gene. The data set is described as follows: Real-time PCR, sstr5 mRNA gene expression in IMR5 cells. The data set is classed as cell-based, human. The settings on record: AE 50µM, SST14 10µM, 5,30,60,120 min (fig.1B). As for the experimental part: as §1, §2
The test system of data set [3] is sstr2 gene. The data set is described as follows: Real-time PCR, sstr2 mRNA gene expression in MRC5 cells. The data set is classed as cell-based, human. The settings on record: AE 50µM, SST14 10µM, 5,30,60,120 min (fig.1B). As for the experimental part: as §1, §2
The conditions of data set [4]: state of the art statement; cited from earlier work.

Take “SST14: somatostatin peptide containing 14 amino acids; natural ligand of somatostatin receptors”: the values for the sstr2 gene expression entry in data set [1] and in data set [3] were “up-regulated” and “significantly upregulated”, respectively. In addition, the Sstr5 gene expression entry in data set [2] is “up-regulated”. For the same substance, the plasma half-life in data set [4] is below 3 min.
